This is an account of results in patent US10941114B2, “Small molecule lipid II inhibitors” (University Of Maryland, Baltimore, priority 2015, dated 2021).

A value given as a limit tells only on which side of the number the result lay.

Series [1] relates to Enterococcus faecium. As to the kind of experiment: Antibacterial activity assay (MIC, broth dilution). It is filed as cell-based. Also on record: Bacterial Killing E. faecium: unit: ug/mL. The settings on record: for Bacterial Killing E. faecium: determined as in Example 1E (MIC); for MIC: Enterococcus faecium, Table 16, CLSI M07-A10 dilution method, read-out: MIC E. faecium; for MIC EF: average of two replicates. Here is the method:
(§1) Determination of the Minimal Inhibitory Concentrations (MIC) by dilution was carried out by broth dilution according to CLSI standards. See CLSI, Methods for Dilution Antimicrobial Susceptibility Tests for Bacteria That Grow Aerobically; Approved Standard—Eighth Edition. 2009, the contents of which are hereby incorporated by reference. Briefly, the minimum inhibitory concentration MIC, is the lowest concentration of a compound that prevents visible growth of a bacterium, in other words at which it has bacteriostatic activity.
For these tests, cation-adjusted Mueller Hinton broth, containing 10% brain-heart infusion (BHI) was used. Concentrations (MIC) are given in μg/mL. The compound was […].
(§2) Compounds were tested for MIC by methods known in the art and described in CLSI, Methods for Dilution Antimicrobial Susceptibility Tests for Bacteria That Grow Aerobically; Approved Standard—Tenth Edition. CLSI document M07-A10. Wayne, Pa.: Clinical and Laboratory Standards Institute, 2015, which is hereby incorporated by reference for these methods.
(§3) Selected compounds also were tested by broth microdilution methods known in the art and described in CLSI, Methods for Dilution Antimicrobial Susceptibility Tests for Bacteria That Grow Aerobically; Approved Standard—Tenth Edition. CLSI document M07-A10. Wayne, Pa.: Clinical and Laboratory Standards Institute, 2015, which is hereby incorporated by reference. Structures of selected compounds in the tables are listed below.
On the technique in general: Broth dilution looks for growth in wells or tubes with falling amounts of substance.

Series [2] concerns Escherichia coli. As to the kind of experiment: Antibacterial activity assay (MIC, broth dilution). Type of series: cell-based. The settings on record: determined as in Example 1E (MIC).
The subject of series [3] is Staphylococcus aureus. Briefly: Antibacterial activity assay (MIC, broth dilution). It is filed as cell-based. Also on record: S. aureus Killing / Bacterial Killing S. aureus: unit not given here. The settings on record: for Bacterial Killing S. aureus: determined as in Example 1E (MIC); for MIC: Staphylococcus aureus, Table 16, CLSI M07-A10 dilution method, read-out: MIC S. aureus; for MIC SA: S. aureus USA300 (MRSA), average of two replicates.

The test system of series [4] is Acinetobacter baumannii. As to the kind of experiment: Antibacterial activity assay (MIC, broth dilution). It is filed as cell-based. The settings on record: for MIC: Acinetobacter baumannii, Table 16, CLSI M07-A10 dilution method, read-out: MIC A. baumannii; for MIC AB: A. baumannii 2-2-2 (colistin-resistant clinical isolate), average of two replicates. On the procedure: as §1, §2, §3

Series [5] relates to HeLa cells. As to the kind of experiment: Cytotoxicity testing (CC50, MTS assay). The settings on record: HeLa cells. A general note: Formazan colour is commonly taken as a measure of viable cells.

In the case of `CN1/C(=C/C=C/c2cc(-c3ccc(Cl)cc3)cc(-c3ccc(Cl)cc3)[o+]2)C(C)(C)c2ccccc21` [Compound 7jc42-1], the “Bacterial Killing E. faecium” value in series [1] is listed as 32. Further, the “Bacterial Killing E. coli” value in series [2] is given as over 64. Besides, the “Bacterial Killing S. aureus” value in series [3] is 8.
The matching figures for `CN1/C(=C/C=C/c2cc(-c3ccc(Br)cc3)cc(-c3ccc(Br)cc3)[o+]2)C(C)(C)c2ccccc21` [Compound 7jc42-2]: 32, over 64 and 32.
The matching figures for `CN(C)c1ccc(/C=C/c2cc(-c3cccc(F)c3)cc(-c3cccc(F)c3)[o+]2)cc1` [Compound 7jc46-1]: 2, over 64 and 1.
The matching figures for `CN(C)c1ccc(/C=C/C=C/c2cc(-c3ccc(F)cc3)cc(-c3ccc(F)cc3)[o+]2)cc1` [Compound 7jc47-2]: 1, over 64 and 1.
Consider `Cc1ccc(-c2cc(-c3ccc(Cl)cc3)cc(/C=C/c3ccc(N(C)CCC#N)cc3)[n+]2C)cc1.[I-]` [Compound 9q, (E)-4-(4-chlorophenyl)-2-(4-((2-cyanoethyl)(methyl)amino)styryl)-1-methyl-6-(p-tolyl)pyridin-1-ium iodide], for which the MIC (as a rule, the lowest concentration that inhibits growth of the organism) worked out at 2 µg/mL in series [1], 0.25 µg/mL in series [3] and 16 µg/mL in series [4].
`CCN(CC)c1ccc(/C=C/c2cc(-c3ccc(Br)cc3)cc(-c3ccc(C)cc3C)[n+]2C)cc1.[I-]` [Compound 9r, (E)-4-(4-bromophenyl)-2-(4-(diethylamino)styryl)-6-(2,4-dimethylphenyl)-1-methylpyridin-1-ium iodide]: the figures for the MIC in series [1], in series [3] and in series [4] were 1 µg/mL, 0.5 µg/mL and 8 µg/mL, respectively.
On the same counts, the results for `Cc1ccc(-c2cc(-c3ccc(Br)cc3)cc(/C=C/c3ccc(N(C)CCO)cc3)[n+]2C)c(C)c1.[I-]` [Compound 9t, (E)-4-(4-bromophenyl)-2-(2,4-dimethylphenyl)-6-(4-((2-hydroxyethyl)(methyl)-amino)styryl)-1-methylpyridin-1-ium iodide] are 2 µg/mL, 0.5 µg/mL and 16 µg/mL.
On the same counts, the results for `Cc1ccc(-c2cc(-c3ccc(Br)cc3)cc(/C=C/c3ccc(N(C)CCC#N)cc3)[n+]2C)cc1C.[I-]` [Compound 9u, (E)-4-(4-bromophenyl)-2-(4-((2-cyanoethyl)(methyl)amino)styryl)-6-(3,4-dimethylphenyl)-1-methylpyridin-1-ium iodide] are 8 µg/mL, 2 µg/mL and 16 µg/mL.
On the same counts, the results for `Cc1ccc(-c2cc(-c3ccc(Br)cc3)cc(/C=C/c3ccc(N(C)C)cc3)[n+]2C)cc1C.[I-]` [Compound 9w, (E)-4-(4-bromophenyl)-2-(4-(dimethylamino)styryl)-6-(3,4-dimethylphenyl)-1-methylpyridin-1-ium iodide] are 4 µg/mL, 1 µg/mL and 8 µg/mL.
With `Cc1ccc(-c2cc(-c3ccc(Br)cc3)cc(/C=C/c3ccc(N(C)CCO)cc3)[n+]2C)cc1C.[I-]` [Compound 9x, (E)-4-(4-bromophenyl)-2-(3,4-dimethylphenyl)-6-(4-((2-hydroxyethyl)(methyl)-amino)styryl)-1-methylpyridin-1-ium iodide], the MIC amounted to 8 µg/mL in series [1], 1 µg/mL in series [3] and 16 µg/mL in series [4].
`COc1cc(-c2cc(/C=C/c3ccc(N(C)C)cc3)[n+](C)c(-c3ccc(Br)cc3)c2)cc(OC)c1Br.[I-]` [Compound 9y1, (E)-4-(4-bromo-3,5-dimethoxyphenyl)-2-(4-bromophenyl)-6-(4-(dimethyl-amino)styryl)-1-methylpyridin-1-ium iodide]: the figures for the MIC in series [1], in series [3] and in series [4] were 8 µg/mL, 2 µg/mL and 16 µg/mL, respectively.
On the same counts, the results for `CCN(CC)c1ccc(/C=C/c2cc(-c3cc(OC)c(Br)c(OC)c3)cc(-c3ccc(Br)cc3)[n+]2C)cc1.[I-]` [Compound 9y2, (E)-4-(4-bromo-3,5-dimethoxyphenyl)-2-(4-bromophenyl)-6-(4-(diethylamino)-styryl)-1-methylpyridin-1-ium iodide] are 4 µg/mL, 1 µg/mL and 8 µg/mL.
With `COc1cc(-c2cc(/C=C/c3ccc(N(C)CCO)cc3)[n+](C)c(-c3ccc(Br)cc3)c2)cc(OC)c1Br.[I-]` [Compound 9y3, (E)-4-(4-bromo-3,5-dimethoxyphenyl)-2-(4-bromophenyl)-6-(4-((2-hydroxy-ethyl)(methyl)amino)styryl)-1-methylpyridin-1-ium iodide], the MIC is 8 µg/mL in series [1], 4 µg/mL in series [3] and 8 µg/mL in series [4].
`COc1cc(-c2cc(/C=C/c3ccc(N(C)CCC#N)cc3)[n+](C)c(-c3ccc(Br)cc3)c2)cc(OC)c1Br.[I-]` [Compound 9y4, (E)-4-(4-bromo-3,5-dimethoxyphenyl)-2-(4-bromophenyl)-6-(4-((2-cyano-ethyl)(methyl)amino)styryl)-1-methylpyridin-1-ium iodide]: the MIC in series [1] stood at 8 µg/mL; in series [3], 4 µg/mL; in series [4], 8 µg/mL.
In the case of `CN(C)c1ccc(/C=C/c2cc(-c3ccc(Br)cc3Cl)cc(-c3ccc(Br)cc3)[n+]2C)cc1.[I-]` [Compound 9z1, (E)-4-(4-bromo-2-chlorophenyl)-2-(4-bromophenyl)-6-(4-(dimethylamino)-styryl)-1-methylpyridin-1-ium iodide], the MIC is 8 µg/mL in series [1], 4 µg/mL in series [3] and 32 µg/mL in series [4].
The matching figures for `CCN(CC)c1ccc(/C=C/c2cc(-c3ccc(Br)cc3Cl)cc(-c3ccc(Br)cc3)[n+]2C)cc1.[I-]` [Compound 9z2, (E)-4-(4-bromo-2-chlorophenyl)-2-(4-bromophenyl)-6-(4-(diethylamino)-styryl)-1-methylpyridin-1-ium iodide]: 1 µg/mL, 0.5 µg/mL and 2 µg/mL.
On the same counts, the results for `CN(CCO)c1ccc(/C=C/c2cc(-c3ccc(Br)cc3Cl)cc(-c3ccc(Br)cc3)[n+]2C)cc1.[I-]` [Compound 9z3, (E)-4-(4-bromo-2-chlorophenyl)-2-(4-bromophenyl)-6-(4-((2-hydroxyethyl)-(methyl)amino)styryl)-1-methylpyridin-1-ium iodide] are 4 µg/mL, 2 µg/mL and 16 µg/mL.
The matching figures for `CN(CCC#N)c1ccc(/C=C/c2cc(-c3ccc(Br)cc3Cl)cc(-c3ccc(Br)cc3)[n+]2C)cc1.[I-]` [Compound 9z4, (E)-4-(4-bromo-2-chlorophenyl)-2-(4-bromophenyl)-6-(4-((2-cyanoethyl)-(methyl)amino)styryl)-1-methylpyridin-1-ium iodide]: 4 µg/mL, 2 µg/mL and 32 µg/mL.
On to `CN(C)c1ccc(/C=C/c2cc(-c3ccc(Br)cc3)cc(-c3ccc(Br)cc3)[n+]2C)cc1.[I-]` [EL-2], for which the CC50 in series [5] (exposure 24 hour) and in series [5] (exposure 24 hours) was 5 µg/mL each time. Also, the “MIC EF” value in series [1] (E. faecium EF1509 (VRE)) was 1 µg/mL; in series [1] (text: E. faecium EF1509 (VRE), footnote: Enterococcus faecalis ATCC 1509), 1 µg/mL. Moreover, the “MIC SA” value in series [3] amounted to 1 µg/mL. For the same compound, the “MIC AB” value in series [4] amounted to 8 µg/mL.
Take `CC(C)[n+]1c(/C=C/c2ccc(N(C)C)cc2)cc(-c2ccc(Br)cc2)cc1-c1ccc(Br)cc1.[I-]` [EL-3]: the half-maximal cytotoxic concentration (CC50) (commonly the concentration giving 50% cytotoxicity) in series [5] (exposure 24 hour) came to 9 µg/mL. In series [1] (E. faecium EF1509 (VRE)), the “MIC EF” value worked out at 2 µg/mL. In addition, the “MIC SA” value in series [3] came out at 2 µg/mL. Besides, the “MIC AB” value in series [4] is 16 µg/mL.
